According to patent US6387905B2, “Compounds useful for inhibition of farnesyl protein transferase” (Schering Corporation, priority 1996, dated 2002):
pIC50: −log10 of the molar value. Values joined by “and” are separate entries in the source; they are usually repeats but may differ in a detail not shown here. Identical values can stand only once. Like-named read-outs stand apart in the source and are kept apart here.

Experiments:
[1] = molecular target: farnesyl protein transferase (FPT), K-ras (Homo sapiens, UniProt P49354+P49356); experiment: FPT IC50 (K-ras), inhibition of farnesyl protein transferase, in vitro enzyme assay; type: biochemical
Method: (§1) FPT IC50 (inhibition of farnesyl protein transferase, in vitro enzyme assay) and COS Cell IC50 (Cell-Based Assay) were determined following the assay procedures described in WO 95/10516, published Apr. 20, 1995. GGPT IC50 (inhibition of geranylgeranyl protein transferase, in vitro enzyme assay), Cell Mat Assay, and anti-tumor activity (in vivo anti-tumor studies) could be determined by the assay procedures described in WO 95/10516. The disclosure of WO 95/10516 is incorporated herein by reference thereto.

COS Cell = COS Cell IC50 (Cell-Based Assay)
Method: as §1

[2] = molecular target: farnesyl protein transferase (FPT), H-ras (Homo sapiens, UniProt P49354+P49356); experiment: FPT IC50 (H-ras), inhibition of farnesyl protein transferase, in vitro enzyme assay; type: biochemical
Method: as §1

Human tumor cells = experiment: Soft Agar Assay (anchorage-independent growth); type: cell-based; details: Homo sapiens
Method: Anchorage-independent growth is a characteristic of tumorgenic cell lines. Human tumor cells are suspended in growth medium containing 0.3% agarose and an indicated concentration of a farnesyl transferase inhibitor. The solution is overlayed onto growth medium solidified with 0.6% agarose containing the same concentration of farnesyl transferase inhibitor as the top layer. After the top layer is solidified, plates are incubated for 10-16 days at 37° C. under 5% CO2 to allow colony outgrowth. After incubation, the colonies are stained by overlaying the agar with a solution of MTT (3-[4,5-dimethyl-thiazol-2-yl]-2,5-diphenyltetrazolium bromide, Thiazolyl blue) (1 mg/mL in PBS). Colonies can be counted and the IC50's can be determined.

[3] = COS, Table 5, read-out: Cos Cell IC50
[4] = Table 5, read-out: Soft Agar IC50
[5] = COS, read-out: Cos Cell IC50, Table 5
[6] = read-out: Soft Agar IC50, Table 5

Compound | pIC50 (COS Cell; [3]) | pIC50 ([2]; Table 4, read-out: FPT IC50) | pIC50 (Human tumor cells; [4]) | other results
O=C(CC1CCN(C(=O)CN2CCS(=O)(=O)CC2)CC1)N1CCC([C@H]2c3ncc(Br)cc3CCc3cc(Cl)cc(Br)c32)CC1 [Example 6.0-B] |  |  |  | pIC50 [1]: 7.84
O=C(CC1CCN(C(=O)Cn2cnc3cccnc32)CC1)N1CCC([C@H]2c3ncc(Br)cc3CCc3cc(Cl)cc(Br)c32)CC1 [Example 13.0-B] |  |  |  | pIC50 [1]: 7.71
N#CCC(=O)N1CCC(CC(=O)N2CCC([C@H]3c4ncc(Br)cc4CCc4cc(Cl)cc(Br)c43)CC2)CC1 [Cmpd 44.0-B] | > 8.00 | 8.59 | 6.92 | 
Cc1nccn1CC(=O)N1CCC(CC(=O)N2CCC([C@H]3c4ncc(Br)cc4CCc4cc(Cl)cc(Br)c43)CC2)CC1 [Example 10.0-B] |  |  |  | pIC50 [1]: 7.80
O=C(CC1CCN(C(=O)Cn2cnc([N+](=O)[O-])c2)CC1)N1CCC([C@H]2c3ncc(Br)cc3CCc3cc(Cl)cc(Br)c32)CC1 [Cmpd 26.0-B] | 7.52 | 8.49 | < 6.30 | 
O=C(CC1CCN(C(=O)Cn2cnc3ccccc32)CC1)N1CCC([C@H]2c3ncc(Br)cc3CCc3cc(Cl)cc(Br)c32)CC1 [Example 12.0-B] |  |  |  | pIC50 [1]: 7.57
O=C(CCN1CCCCC1)N1CCC(CC(=O)N2CCC([C@H]3c4ncc(Br)cc4CCc4cc(Cl)cc(Br)c43)CC2)CC1 [Example 7.0-B] |  |  |  | pIC50 [1]: 7.81
NNC(=O)C(=O)N1CCC(CC(=O)N2CCC([C@H]3c4ncc(Br)cc4CCc4cc(Cl)cc(Br)c43)CC2)CC1 [Cmpd 32.0-B] | 7.55 | 8.46 | < 6.30 | 
O=C(CO/N=C/c1cc[n+]([O-])cc1)N1CCC(CC(=O)N2CCC([C@H]3c4ncc(Br)cc4CCc4cc(Cl)cc(Br)c43)CC2)CC1 [Cmpd 22.0-B] | 7.46 | 8.74 | 7.71 | 
CC(C)(C)OC(=O)NCCCC(=O)N1CCC(CC(=O)N2CCC([C@H]3c4ncc(Br)cc4CCc4cc(Cl)cc(Br)c43)CC2)CC1 [Example 89.0-B] | 6.26 | 8.06 | < 6.30 | 
O=C(CO/N=C/c1ccccc1O)N1CCC(CC(=O)N2CCC([C@H]3c4ncc(Br)cc4CCc4cc(Cl)cc(Br)c43)CC2)CC1 [Cmpd 95.0-B] | 7.96 | 8.08 | < 6.30 | 
O=C(O)C(=O)N1CCC(CC(=O)N2CCC([C@H]3c4ncc(Br)cc4CCc4cc(Cl)cc(Br)c43)CC2)CC1 [Cmpd 17.0-B] | < 6.00 | 8.92 | < 6.30 | 
O=C(O)CC(O)CC(=O)N1CCC(CC(=O)N2CCC([C@H]3c4ncc(Br)cc4CCc4cc(Cl)cc(Br)c43)CC2)CC1 (some centres unmarked) [Example 74.0-B] | 7.40 | 8.77 | 6.30 | 
O=C(CC1CCN(C(=O)Cn2cncn2)CC1)N1CCC([C@H]2c3ncc(Br)cc3CCc3cc(Cl)cc(Br)c32)CC1 [Cmpd 57.0-B] | > 8.00 | 8.74 | 6.96 | 
O=C(CC1CCN(C(=O)Cn2cnc3cccnc32)CC1)N1CCC([C@H]2c3ncc(Br)cc3CCc3cc(Cl)cc(Br)c32)CC1 [Cmpd 13.0-B] | 7.60 | 8.39 | < 6.30 | 
O=C(O)CC(=O)N1CCC(CC(=O)N2CCC([C@H]3c4ncc(Br)cc4CCc4cc(Cl)cc(Br)c43)CC2)CC1 [Example 14.0-B] |  | 9.05 and 8.72 |  | pIC50 (COS Cell; [5]): 6.60; pIC50 (COS Cell; read-out: Cos Cell IC50, Table 5): 6.70; pIC50 (Human tumor cells; [6]): < 6.30
O=C(CC1CCN(C(=O)CC2COCCO2)CC1)N1CCC([C@H]2c3ncc(Br)cc3CCc3cc(Cl)cc(Br)c32)CC1 (some centres unmarked) [Cmpd 114.2-B] | 8.00 | 8.41 | 7.12 | 
O=C(Cc1c[nH]cn1)N1CCC(CC(=O)N2CCC([C@H]3c4ncc(Br)cc4CCc4cc(Cl)cc(Br)c43)CC2)CC1 [Cmpd 30.0-B] | 8.05 | 8.54 | 6.30 | 
CCOC(=O)CC(CC(=O)N1CCC(CC(=O)N2CCC(C3c4ncc(Br)cc4CCc4cc(Cl)cc(Br)c43)CC2)CC1)OC(C)=O (centres unmarked) [Example 16.0-B] | 7.80 | 8.28 | 7.05 | 
CC(C)(C)OC(=O)N1CC(O)CC1C(=O)N1CCC(CC(=O)N2CCC(C3c4ncc(Br)cc4CCc4cc(Cl)cc(Br)c43)CC2)CC1 (centres unmarked) [Example 24.0-B] | 7.00 | 9.15 | < 6.30 | 
NC(=O)CC(O)CC(=O)N1CCC(CC(=O)N2CCC([C@H]3c4ncc(Br)cc4CCc4cc(Cl)cc(Br)c43)CC2)CC1 (some centres unmarked) [Cmpd 92.0-B] | 7.82 | 8.66 | 7.35 | 

Compound | pIC50 (COS Cell; [3]) | pIC50 ([2]; Table 4, read-out: FPT IC50) | pIC50 (Human tumor cells; [4]) | other results
Cc1cn(CC(=O)N2CCC(CC(=O)N3CCC([C@H]4c5ncc(Br)cc5CCc5cc(Cl)cc(Br)c54)CC3)CC2)cn1 [Cmpd 11.0-B] | 7.54 | 8.80 | < 6.30 | 
O=C(O)CCCCC(=O)N1CCC(CC(=O)N2CCC([C@H]3c4ncc(Br)cc4CCc4cc(Cl)cc(Br)c43)CC2)CC1 [Example 81] |  | 8.44 |  | pIC50 (COS Cell; [5]): 7.52; pIC50 (Human tumor cells; [6]): 6.32
CCOC(=O)c1ncn(CC(=O)N2CCC(CC(=O)N3CCC([C@H]4c5ncc(Br)cc5CCc5cc(Cl)cc(Br)c54)CC3)CC2)c1C [Cmpd 54.0-B] | 7.00 | 8.41 | < 6.30 | 
Cc1cn(CC(=O)N2CCC(CC(=O)N3CCC([C@H]4c5ncc(Br)cc5CCc5cc(Cl)cc(Br)c54)CC3)CC2)cn1 [Example 11.0-B] |  |  |  | pIC50 [1]: 7.90
O=C(CC1CCN(C(=O)Cn2cccc2)CC1)N1CCC([C@H]2c3ncc(Br)cc3CCc3cc(Cl)cc(Br)c32)CC1 [Cmpd 34.0-B] | 8.05 | 8.38 | 6.34 | 
CC(C)=NOCC(=O)N1CCC(CC(=O)N2CCC([C@H]3c4ncc(Br)cc4CCc4cc(Cl)cc(Br)c43)CC2)CC1 [Example 9.0-B] |  |  |  | pIC50 [1]: 7.39
O=C(CC1CCN(C(=O)Cn2cnc3ccccc32)CC1)N1CCC([C@H]2c3ncc(Br)cc3CCc3cc(Cl)cc(Br)c32)CC1 [Cmpd 12.0-B] | 7.70 | 8.52 | < 6.30 | 
O=C(CC1CCN(C(=O)CC2CCCO2)CC1)N1CCC([C@H]2c3ncc(Br)cc3CCc3cc(Cl)cc(Br)c32)CC1 (some centres unmarked) [Cmpd 114.4-B] | 8.00 | 8.11 | 6.44 | 
CN(C)S(=O)(=O)NCC(=O)N1CCC(CC(=O)N2CCC([C@H]3c4ncc(Br)cc4CCc4cc(Cl)cc(Br)c43)CC2)CC1 [Cmpd 38.0-B] | 8.00 | 8.49 | 6.68 | 
O=C(C(=O)N1CCC(CC(=O)N2CCC([C@H]3c4ncc(Br)cc4CCc4cc(Cl)cc(Br)c43)CC2)CC1)c1cccs1 [Cmpd 81.0-B] | 7.55 | 8.03 | < 6.30 | 
CC(=O)C(=O)N1CCC(CC(=O)N2CCC([C@H]3c4ncc(Br)cc4CCc4cc(Cl)cc(Br)c43)CC2)CC1 [Cmpd 72.0-B] | 8.00 | 8.27 | 6.49 | 
O=C(Cc1cccs1)N1CCC(CC(=O)N2CCC([C@H]3c4ncc(Br)cc4CCc4cc(Cl)cc(Br)c43)CC2)CC1 [Cmpd 82.0-B] | > 8.00 | 8.15 | < 6.30 | 
NC(=O)CC(=O)N1CCC(CC(=O)N2CCC([C@H]3c4ncc(Br)cc4CCc4cc(Cl)cc(Br)c43)CC2)CC1 [Cmpd 50.0-B] | > 8.00 | 8.48 | 7.02 | 
NC(=O)CCCCCC(=O)N1CCC(CC(=O)N2CCC([C@H]3c4ncc(Br)cc4CCc4cc(Cl)cc(Br)c43)CC2)CC1 [Cmpd 71.0-B] | 7.72 | 8.48 | 6.62 | 
CONC(=O)C(=O)N1CCC(CC(=O)N2CCC(C3c4ncc(Br)cc4CCc4cc(Cl)cc(Br)c43)CC2)CC1 (centres unmarked) [Cmpd 49.0-B] | 7.42 | 8.68 | < 6.30 | 
O=C(CC1CCN(C(=O)CN2C(=O)CSC2=O)CC1)N1CCC([C@H]2c3ncc(Br)cc3CCc3cc(Cl)cc(Br)c32)CC1 [Cmpd 79.0-B] | 6.82 | 8.36 | < 6.30 | 
COC(=O)Cc1cn(CC(=O)N2CCC(CC(=O)N3CCC([C@H]4c5ncc(Br)cc5CCc5cc(Cl)cc(Br)c54)CC3)CC2)cn1 [Cmpd 56.0-B] | 7.30 | 8.48 | < 6.30 | 
NC(=O)CCCC(=O)N1CCC(CC(=O)N2CCC([C@H]3c4ncc(Br)cc4CCc4cc(Cl)cc(Br)c43)CC2)CC1 [Cmpd 114.0-B] | 7.46 | 8.41 | 6.40 | 
O=C(O)CCCCCC(=O)N1CCC(CC(=O)N2CCC([C@H]3c4ncc(Br)cc4CCc4cc(Cl)cc(Br)c43)CC2)CC1 [Example 80] |  | 8.85 |  | pIC50 (COS Cell; [5]): 7.60; pIC50 (Human tumor cells; [6]): 6.60
O=C(O)NC(=O)C(=O)N1CCC(CC(=O)N2CCC([C@H]3c4ncc(Br)cc4CCc4cc(Cl)cc(Br)c43)CC2)CC1 [Cmpd 59.0-B] | 7.30 | 8.40 | 6.30 | 
COC(=O)C(=O)N1CCC(CC(=O)N2CCC([C@H]3c4ncc(Br)cc4CCc4cc(Cl)cc(Br)c43)CC2)CC1 [Example 104.0-B] | 7.40 |  | < 6.30 | pIC50 ([2]; H-ras, read-out: FPT IC50 (H-ras)): 8.34
